Values of other authors as cited in patent US9527913B2, “Humanized pan-HER antibody compositions” (Symphogen A/S, priority 2012, dated 2016).
Where two headings read alike, the source gives them in different places.

Tested on: patient-derived xenograft models of pancreatic cancer
Conditions: cited from earlier work

SMILES: C#Cc1cccc(Nc2ncnc3cc(OCCOC)c(OCCOC)cc23)c1 [Erlotinib]
- Erlotinib resistant (model ST191): Yes
- Erlotinib resistant (model ST334): Yes
- Erlotinib resistant (model ST383): Yes
- Erlotinib resistant (model ST385): Yes
- Erlotinib resistant (model STS021): No
- Erlotinib resistant (model STS058): Yes
- Erlotinib resistant (model STS059): Yes
